Test results: patent US5288726A, “Tetrahydrothienopyridine derivatives, furo and pyrrolo analogs thereof and their preparation and uses for inhibiting blood platelet aggregation” (Ube Industries Limited, priority 1991, dated 1994)

Test system: blood platelet aggregation
Assay: Inhibition of blood platelet aggregation (ex vivo, ADP or collagen induced, rats dosed orally)
Format: in vivo, rat (SD strain, female)
Conditions: rat, oral, 4 hours before test, ADP or collagen (inducer not given), read-out: % Inhibition of blood platelet aggregation (Test Ex. 2)
Experimental: Inhibition of Blood Platelet Aggregation Female rats of the SD strain (supplied by Japan Charles River Inc.) were divided into groups of 4 each for the test. […] As a control, a 5% w/v aqueous solution of gum arabic was administered to a control group of rats, without any test drug. Blood platelet aggregation was tested according to the method of P. Lumley and P. P. A. Humphrey [J. Pharmacol. Methods 6, 153-166 (1981)]with a partial modification. […] The blood platelet aggregation rate was calculated from the following equation. […] The inhibitory effect was calculated as the percent inhibition of the treated groups as compared with the control groups.

SMILES	inhibition at 1 mg/kg	inhibition at 3 mg/kg	inhibition at 30 mg/kg (30 mg/kg (footnote *))	inhibition at 10 mg/kg
O=C(C1CC1)C(c1ccccc1F)N1CCc2sccc2C1 (stereo not drawn) [Compound No. 59, 5-(α-Cyclopropylcarbonyl-2-fluorobenzyl)-4,5,6,7-tetrahydrothieno[3,2-c]pyridine]	57.1%	98.1%	–	–
O=C1C=C2CN(C(C(=O)C3CC3)c3ccccc3F)CCC2S1 (stereo not drawn) [Compound No. 235, 5-(α-Cyclopropylcarbonyl-2-fluorobenzyl)-2-oxo-2,4,5,6,7,7a-hexahydrothieno[3,2-c]pyridine]	98.8%	–	–	–
Clc1ccccc1CN1CCc2sccc2C1 [Compound A, 5 (2-chlorobenzyl)-4,5,6,7-tetrahydrothieno[3,2-c]pyridine, reference compound]	–	–	3.7%	–
O=C1C=C2CN(C(C(=O)C3CC3)c3ccccc3Cl)CCC2S1 (stereo not drawn) [Compound No. 233, 5-(2-Chloro-α-cyclopropylcarbonylbenzyl)-2-oxo-2,4,5,6,7,7a-hexahydrothieno[3,2-c]pyridine]	–	–	–	98.9%
O=C(C1CC1)C(c1ccccc1Cl)N1CCc2sccc2C1 (stereo not drawn) [Compound No. 60, 5-(2-Chloro-α-cyclopropylcarbonylbenzyl)-4,5,6,7-tetrahydrothieno[3,2-c]pyridine]	–	74.2%	–	100%
CCCC(=O)Oc1cc2c(s1)CCN(C(C(=O)C1CC1)c1ccccc1F)C2 (stereo not drawn) [Compound No. 194, 2-Butyryloxy-5-(α-cyclopropylcarbonyl-2-fluorobenzyl)4,5,6,7-tetrahydrothieno[3,2-c]pyridine]	100%	–	–	–
CC(=O)Oc1cc2c(s1)CCN(C(C(=O)C1CC1)c1ccccc1F)C2 (stereo not drawn) [Compound No. 190, 2-Acetoxy-5-(α-cyclopropylcarbonyl-2-fluorobenzyl)4,5,6,7-tetrahydrothieno[3,2-c]pyridine]	100%	–	–	–
CC(C)(C)C(=O)Oc1cc2c(s1)CCN(C(C(=O)C1CC1)c1ccccc1F)C2 (stereo not drawn) [Compound No. 196, 5-(α-Cyclopropylcarbonyl-2-fluorobenzyl)-2-pivaloyloxy-4,5,6,7-tetrahydrothieno[3,2-c]pyridine]	97.6%	–	–	–
COC(=O)C(c1ccccc1Cl)N1CCc2sccc2C1 (stereo not drawn) [Compound B, 5-(2-chloro-α-methoxycarbonylbenzyl) 4,5,6,7-tetrahydrothieno[3,2-c]pyridine, reference compound]	–	25.7%	–	98.8%
CCC(=O)C(c1ccccc1F)N1CCc2sccc2C1 (stereo not drawn) [Compound No. 19, 5-(2-Fluoro-α-propionylbenzyl)-4,5,6,7-tetrahydrothieno[3,2-c]pyridine]	–	29.3%	–	97.8%
